Experimental data: US6355799B1, “Substituted benzene compounds, process for their preparation, and herbicidal and defoliant compositions containing them” (ISK Americas Incorporated, priority 1997, dated 2002)

Experiments:
Type in all cases: in vivo
[1] = system: upland rice (Oryza sp., var. Tebonnet, RICE); test: Post-emerge test, crop safety; conditions: phytotoxicity rating 0-100 (0 no damage, 100 complete death), 14 days after application
Method in brief: (§1)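 Fourteen days after spraying, crop and weed injury was graded visually from 0, no effect, to 100, every plant dead. Test substances were dissolved in acetone and applied at 15–1000 g ai/ha with a flat-fan nozzle. Application was either pre-emergence, one day after sowing, or post-emergence at the 2–3 leaf stage.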

[2] = system: field corn (Zea mays L., var. Dekalb 535, CORN); test: Post-emerge test, crop safety; conditions: phytotoxicity rating 0-100 (0 no damage, 100 complete death), 14 days after application
Method in brief: as §1

[3] = system: sicklepod (Cassia obtusifolia, CASOB); test: Post-emerge test, greenhouse herbicide activity screening; conditions: phytotoxicity rating 0-100 (0 no damage, 100 complete death), 14 days after application
Method in brief: (§2)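 Each test used a mechanized track sprayer delivering 187 l/ha of acetone solution at 15–1000 g ai/ha. Post-emerge foliage at 2–3 leaves was treated with added 0.25% v/v non-ionic surfactant and bottom-watered only. Injury was assessed on day 14, where 100 means total kill.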

[4] = system: large crabgrass (Digitaria sanguinalis, DIGSA); test: as above; conditions: phytotoxicity rating 0-100 (0 no damage, 100 complete death), 14 days after application
Method in brief: as §2

[5] = system: johnsongrass (Sorghum halepense, SORHA); test: as above; conditions: phytotoxicity rating 0-100 (0 no damage, 100 complete death), 14 days after application
Method in brief: as §2

[6] = system: barnyardgrass (Echinochloa crus-galli, ECHCG); test: as above; conditions: phytotoxicity rating 0-100 (0 no damage, 100 complete death), 14 days after application
Method in brief: as §2

[7] = system: velvetleaf (Abutilon theophrasti, ABUTH); test: as above; conditions: phytotoxicity rating 0-100 (0 no damage, 100 complete death), 14 days after application
Method in brief: as §2

[8] = system: lambsquarters (Chenopodium album, CHEAL); test: as above; conditions: phytotoxicity rating 0-100 (0 no damage, 100 complete death), 14 days after application
Method in brief: as §2

[9] = system: ivyleaf morningglory (Ipomoea hederacea, IPOHE); test: as above; conditions: phytotoxicity rating 0-100 (0 no damage, 100 complete death), 14 days after application
Method in brief: as §2

[10] = system: green foxtail (Setaria viridis, SETVI); test: as above; conditions: phytotoxicity rating 0-100 (0 no damage, 100 complete death), 14 days after application
Method in brief: as §2

[11] = system: common ragweed (Ambrosia artemisizfolia L., AMBEL); test: as above; conditions: phytotoxicity rating 0-100 (0 no damage, 100 complete death), 14 days after application
Method in brief: as §2

[12] = system: redroot pigweed (Amaranthus retroflexus, AMARE); test: as above; conditions: phytotoxicity rating 0-100 (0 no damage, 100 complete death), 14 days after application
Method in brief: as §2

[13] = system: redroot pigweed (Amaranthus retroflexus, AMARE); test: Pre-emerge test, greenhouse herbicide activity screening; conditions: pre-emerge, rated 14 days after application, 0 = no damage, 100 = complete death
Method in brief: (§3)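 Herbicidal damage is scored 0 (none) to 100 (complete plant death) two weeks after a simulated field spray. Rates span 15–1000 g ai/ha, delivered in acetone at 187 l/ha. For post-emergence treatments, plants have 2–3 leaves and the spray carries 0.25% v/v non-ionic surfactant.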

[14] = system: sicklepod (Cassia obtusifolia, CASOB); test: as above; conditions: pre-emerge, rated 14 days after application, 0 = no damage, 100 = complete death
Method in brief: as §1

[15] = system: large crabgrass (Digitaria sanguinalis, DIGSA); test: as above; conditions: pre-emerge, rated 14 days after application, 0 = no damage, 100 = complete death
Method in brief: as §1

[16] = system: johnsongrass (Sorghum halepense, SORHA); test: as above; conditions: pre-emerge, rated 14 days after application, 0 = no damage, 100 = complete death
Method in brief: as §1

[17] = system: barnyardgrass (Echinochloa crus-galli, ECHCG); test: as above; conditions: pre-emerge, rated 14 days after application, 0 = no damage, 100 = complete death
Method in brief: as §1

[18] = system: velvetleaf (Abutilon theophrasti, ABUTH); test: as above; conditions: pre-emerge, rated 14 days after application, 0 = no damage, 100 = complete death
Method in brief: as §1

[19] = system: lambsquarters (Chenopodium album, CHEAL); test: as above; conditions: pre-emerge, rated 14 days after application, 0 = no damage, 100 = complete death
Method in brief: as §1

[20] = system: ivyleaf morningglory (Ipomoea hederacea, IPOHE); test: as above; conditions: pre-emerge, rated 14 days after application, 0 = no damage, 100 = complete death
Method in brief: as §1

[21] = system: green foxtail (Setaria viridis, SETVI); test: as above; conditions: pre-emerge, rated 14 days after application, 0 = no damage, 100 = complete death
Method in brief: as §1

[22] = system: common ragweed (Ambrosia artemisizfolia L., AMBEL); test: as above; conditions: pre-emerge, rated 14 days after application, 0 = no damage, 100 = complete death
Method in brief: as §1

[23] = system: upland rice (Oryza sp., var. Tebonnet, RICE); test: Pre-emerge test, crop safety; conditions: pre-emerge, rated 14 days after application, 0 = no damage, 100 = complete death
Method in brief: as §3

[24] = system: field corn (Zea mays L., var. Dekalb 535, CORN); test: Pre-emerge test, crop safety; conditions: pre-emerge, rated 14 days after application, 0 = no damage, 100 = complete death
Method in brief: as §3

Compound: COc1c(Cl)cc(F)c(-n2c(=O)c(NC(=O)C(F)(F)F)c(C(F)(F)F)n(C)c2=O)c1NC(=O)C(F)(F)F [2-12]
- Post-emerge Herbicidal Activity RICE (crop damage) ([1]; 63 g ai/ha): 0
- Post-emerge Herbicidal Activity RICE (crop damage) ([1]; 250 g ai/ha): 0
- Post-emerge Herbicidal Activity CORN (crop damage) ([2]; 63 g ai/ha): 0
- Post-emerge Herbicidal Activity CORN (crop damage) ([2]; 250 g ai/ha): 0
- Post-emerge Herbicidal Activity CASOB ([3]; 63 g ai/ha): 0
- Post-emerge Herbicidal Activity CASOB ([3]; 250 g ai/ha): 0
- Post-emerge Herbicidal Activity DIGSA ([4]; 63 g ai/ha): 0
- Post-emerge Herbicidal Activity DIGSA ([4]; 250 g ai/ha): 0
- Post-emerge Herbicidal Activity SORHA ([5]; 63 g ai/ha): 0
- Post-emerge Herbicidal Activity SORHA ([5]; 250 g ai/ha): 0
- Post-emerge Herbicidal Activity ECHCG ([6]; 63 g ai/ha): 0
- Post-emerge Herbicidal Activity ECHCG ([6]; 250 g ai/ha): 0
- Post-emerge Herbicidal Activity ABUTH ([7]; 63 g ai/ha): 20
- Post-emerge Herbicidal Activity ABUTH ([7]; 250 g ai/ha): 65
- Post-emerge Herbicidal Activity CHEAL ([8]; 63 g ai/ha): 0
- Post-emerge Herbicidal Activity CHEAL ([8]; 250 g ai/ha): 40
- Post-emerge Herbicidal Activity IPOHE ([9]; 63 g ai/ha): 0
- Post-emerge Herbicidal Activity IPOHE ([9]; 250 g ai/ha): 50
- Post-emerge Herbicidal Activity SETVI ([10]; 63 g ai/ha): 0
- Post-emerge Herbicidal Activity SETVI ([10]; 250 g ai/ha): 0
- Post-emerge Herbicidal Activity AMBEL ([11]; 63 g ai/ha): 0
- Post-emerge Herbicidal Activity AMBEL ([11]; 250 g ai/ha): 10
- Post-emerge Herbicidal Activity AMARE ([12]; 63 g ai/ha): 0
- Post-emerge Herbicidal Activity AMARE ([12]; 250 g ai/ha): 10
- Pre-emerge Herbicidal Activity AMARE (phytotoxicity rating, scale 0-100) ([13]; 63 g ai/ha): 30
- Pre-emerge Herbicidal Activity AMARE (phytotoxicity rating, scale 0-100) ([13]; 250 g ai/ha): 100
- Pre-emerge Herbicidal Activity CASOB (phytotoxicity rating, scale 0-100) ([14]; 63 g ai/ha): 30
- Pre-emerge Herbicidal Activity CASOB (phytotoxicity rating, scale 0-100) ([14]; 250 g ai/ha): 40
- Pre-emerge Herbicidal Activity DIGSA (phytotoxicity rating, scale 0-100) ([15]; 63 g ai/ha): 0
- Pre-emerge Herbicidal Activity DIGSA (phytotoxicity rating, scale 0-100) ([15]; 250 g ai/ha): 0
- Pre-emerge Herbicidal Activity SORHA (phytotoxicity rating, scale 0-100) ([16]; 63 g ai/ha): 0
- Pre-emerge Herbicidal Activity SORHA (phytotoxicity rating, scale 0-100) ([16]; 250 g ai/ha): 0
- Pre-emerge Herbicidal Activity ECHCG (phytotoxicity rating, scale 0-100) ([17]; 63 g ai/ha): 0
- Pre-emerge Herbicidal Activity ECHCG (phytotoxicity rating, scale 0-100) ([17]; 250 g ai/ha): 0
- Pre-emerge Herbicidal Activity ABUTH (phytotoxicity rating, scale 0-100) ([18]; 63 g ai/ha): 50
- Pre-emerge Herbicidal Activity ABUTH (phytotoxicity rating, scale 0-100) ([18]; 250 g ai/ha): 70
- Pre-emerge Herbicidal Activity CHEAL (phytotoxicity rating, scale 0-100) ([19]; 63 g ai/ha): 0
- Pre-emerge Herbicidal Activity CHEAL (phytotoxicity rating, scale 0-100) ([19]; 250 g ai/ha): 30
- Pre-emerge Herbicidal Activity IPOHE (phytotoxicity rating, scale 0-100) ([20]; 63 g ai/ha): 40
- Pre-emerge Herbicidal Activity IPOHE (phytotoxicity rating, scale 0-100) ([20]; 250 g ai/ha): 70
- Pre-emerge Herbicidal Activity SETVI (phytotoxicity rating, scale 0-100) ([21]; 63 g ai/ha): 0
- Pre-emerge Herbicidal Activity SETVI (phytotoxicity rating, scale 0-100) ([21]; 250 g ai/ha): 0
- Pre-emerge Herbicidal Activity AMBEL (phytotoxicity rating, scale 0-100) ([22]; 63 g ai/ha): 0
- Pre-emerge Herbicidal Activity AMBEL (phytotoxicity rating, scale 0-100) ([22]; 250 g ai/ha): 0
- Pre-emerge crop damage RICE (phytotoxicity rating, scale 0-100) ([23]; 63 g ai/ha): 0
- Pre-emerge crop damage RICE (phytotoxicity rating, scale 0-100) ([23]; 250 g ai/ha): 0
- Pre-emerge crop damage CORN (phytotoxicity rating, scale 0-100) ([24]; 63 g ai/ha): 0
- Pre-emerge crop damage CORN (phytotoxicity rating, scale 0-100) ([24]; 250 g ai/ha): 0
